IC50 data for 22 molecules are collected here from ChEMBL document CHEMBL3600310 (J Med Chem, 2015).

Holding throughout (format): functional, cell-based
One assay relates to A549. Put plainly: Cytotoxicity against human A549 cells after 72 hrs by MTT assay. The settings on record: A549, 72 h. Background: Tetrazolium dyes change colour on reduction, which living cells bring about.
For the next assay, the system named is HCT-116. Briefly: Cytotoxicity against human HCT116 cells after 72 hrs by MTT assay. The note with it: HCT-116, 72 h.
The next assay relates to MDA-MB-435. Put plainly: Cytotoxicity against human MDA-MB-435 cells after 72 hrs by MTT assay. The note with it: MDA-MB-435, 72 h.

As for `CC(C)C(=O)Nc1ccc2c(c1)C(=O)N1CCc3c([nH]c4ccccc34)C1O2` (stereo unspecified), the IC50 (in general, the point on the concentration scale where inhibition reaches its midpoint) in the assay with A549 was 28.4 µM; in the assay with HCT-116 it was 9.4 µM; in the assay with MDA-MB-435 it was 11.7 µM.

With `CN1c2ccccc2C(=O)N2CCCc3c(oc4ccc(O)cc34)C21` (stereo unspecified), the IC50 in the assay with A549, in the assay on HCT-116 and in the assay with MDA-MB-435 was greater than 200 µM in each case.

As to `COc1ccc2[nH]c3c(c2c1)CCN1C(=O)c2ccccc2OC31` (stereo unspecified), the half-maximal inhibitory concentration (IC50) in the assay with A549, in the assay with HCT-116 and with MDA-MB-435 was greater than 200 µM in each case.

As for `CN1c2ccn(C)c2C(=O)N2CCc3c([nH]c4ccc(O)cc34)C21` (stereo unspecified), the IC50 in the assay with A549 was determined as 5 µM; in the assay on HCT-116, 15.4 µM; with MDA-MB-435, 11.7 µM.

Turning to `Cc1ccc2c(c1)OC1c3[nH]c4ccccc4c3CCN1C2=S` (stereo unspecified), the half-inhibitory concentration (IC50) with A549 was determined as 65.2 µM; in the assay with HCT-116 it was 44.4 µM; in the assay on MDA-MB-435, 60.3 µM.

Consider `COc1ccc2[nH]c3c(c2c1)CCCN1C(=O)c2ccccc2N(C)C31` (stereo unspecified), for which the half-maximal inhibitory concentration (IC50) with A549, with HCT-116 and in the assay on MDA-MB-435 was greater than 200 µM each time.

With `COc1ccc2oc3c(c2c1)CCCN1C(=O)c2ccccc2N(C)C31` (stereo unspecified), the half-maximal inhibitory concentration (IC50) with A549 came out at 6.2 µM; with HCT-116, 5.3 µM; with MDA-MB-435, 28.4 µM.

On to `COc1ccc2[nH]c3c(c2c1)CCN1C(=O)c2cccc(OC)c2OC31` (stereo unspecified), for which the half-inhibitory concentration (IC50) was greater than 200 µM in the assay with A549, 52.7 µM with HCT-116 and 80.1 µM in the assay with MDA-MB-435.

As for `O=C1c2ccc(O)cc2OC2c3[nH]c4ccccc4c3CCN12` (stereo unspecified), the half-inhibitory concentration (IC50) was found to be 17.5 µM in the assay on A549, 54.1 µM in the assay on HCT-116 and 29.3 µM in the assay on MDA-MB-435.

Consider `COc1ccc2[nH]c3c(c2c1)CCN1C(=O)c2cc([N+](=O)[O-])ccc2OC31` (stereo unspecified), for which the half-inhibitory concentration (IC50) in the assay on A549, in the assay on HCT-116 and in the assay on MDA-MB-435 was greater than 200 µM in each case.

On to `COc1ccc2[nH]c3c(c2c1)CCN1C(=O)c2cc(F)ccc2OC31` (stereo unspecified), for which the concentration for half-maximal inhibition (IC50) with A549 was 13.1 µM; in the assay on HCT-116 it was 25.1 µM; in the assay with MDA-MB-435 it was 36.4 µM.

For `O=C1c2cccc(O)c2OC2c3[nH]c4ccc(O)cc4c3CCN12` (stereo unspecified), the half-maximal inhibitory concentration (IC50) in the assay on A549 was greater than 200 µM; in the assay with HCT-116, 53.4 µM; with MDA-MB-435 it was 66.2 µM.

For `CN1c2ccoc2C(=O)N2CCc3c([nH]c4ccccc34)C21` (stereo unspecified), the concentration for half-maximal inhibition (IC50) was greater than 200 µM in the assay with A549, 178 µM in the assay with HCT-116 and 182 µM in the assay with MDA-MB-435.

With `O=C1c2cc([N+](=O)[O-])ccc2OC2c3[nH]c4ccccc4c3CCN12` (stereo unspecified), the half-maximal inhibitory concentration (IC50) in the assay on A549, with HCT-116 and in the assay with MDA-MB-435 was greater than 200 µM throughout.

`O=C1c2cc(I)cc(I)c2OC2c3[nH]c4ccccc4c3CCN12` (stereo unspecified): the IC50 with A549 was greater than 200 µM; in the assay on HCT-116 it was 24.4 µM; with MDA-MB-435 it was greater than 200 µM.

`Cc1cccc2c1C(=O)N1CCc3c([nH]c4ccccc34)C1O2` (stereo unspecified): the 50% inhibitory concentration (IC50) with A549 is greater than 200 µM; with HCT-116 it was 38.1 µM; in the assay on MDA-MB-435, greater than 200 µM.

With `CC(C)CNc1ccc2c(c1)C(=O)N1CCc3c([nH]c4ccccc34)C1O2` (stereo unspecified), the values for the half-inhibitory concentration (IC50) with A549, with HCT-116 and with MDA-MB-435 were greater than 200 µM, 5.3 µM and greater than 200 µM, respectively.

For the molecule `O=C1c2ccc(Cl)cc2OC2c3[nH]c4ccccc4c3CCN12` (stereo unspecified), the IC50 amounted to 58.6 µM with A549, 40.6 µM in the assay on HCT-116 and 34.2 µM in the assay on MDA-MB-435.

Regarding `COc1ccc2[nH]c3c(c2c1)CCN1C(=O)c2cc(N)ccc2OC31` (stereo unspecified), the IC50 in the assay with A549 was found to be 114 µM; with HCT-116, 42.8 µM; in the assay with MDA-MB-435 it was 132 µM.

For the molecule `COc1ccc2[nH]c3c(c2c1)CCN1C(=O)c2ccc(C)cc2OC31` (stereo unspecified), the figures for the concentration for half-maximal inhibition (IC50) in the assay with A549, in the assay on HCT-116 and with MDA-MB-435 were greater than 200 µM, greater than 200 µM and 198 µM, respectively.

For `COc1ccc2[nH]c3c(c2c1)CCN1C(=O)c2ccc4ccccc4c2OC31` (stereo unspecified), the IC50 with A549, in the assay with HCT-116 and with MDA-MB-435 was greater than 200 µM each time.

Take `O=C1c2ccc(C(F)(F)F)cc2OC2c3[nH]c4ccccc4c3CCN12` (stereo unspecified): the IC50 in the assay on A549 came to 25.8 µM; in the assay on HCT-116, 23.3 µM; in the assay with MDA-MB-435 it was 21.9 µM.
